# According to patent US9364543B2, “Visible light curable hydrogels and methods for using” (Indiana University Research and Technology Corporation, priority 2012, dated 2016):
# Where two headings read alike, the source gives them in different places.
# How the values were obtained:
# [1] = cited from earlier work
# [2] = cited from earlier work; remark: listed apart in the source
# [3] = Eosin-Y release and retention in thiol-ene hydrogels; assay type: physicochemical; conditions: for eosin-Y retention in thiol-ene hydrogels: after 48 hours of swelling
# Method: EXAMPLE. Eosin-Y retention: PEG4NB-DTT hydrogel discs (8 mm in diameter and 1 mm in height) are fabricated. Immediately after polymerization, each hydrogel (8 mm in diameter and 1 mm in height) is immersed into a scintillation vial containing 2 mL of ddH2O. Three separate samples are prepared per experimental condition. These scintillation vials are capped tightly and stored at 37° C. on an orbital shaker. At specific time points, these vials are swirled manually to ensure homogeneous mix and 200 μL of solution is transferred to a well of a transparent 96-well plate. The buffer is changed at every time point. The absorbance (at 515 nm) of the collected samples is determined using a microplate reader (Biotek). Eosin-Y retention was calculated by generating a standard curve prepared from a series of known eosin-Y concentrations (0.02 mM being the highest).
# [4] = post-gelation, pH 7.4 PBS, FIG. 10
Compound,water solubility [1],molar absorptivity (ε) ([2]; at 365 nm),molar absorptivity (ε) ([2]; at 405 nm),"time in which most of the eosin-Y was released from the hydrogel [3, 4]","time to complete release of eosin-Y from the hydrogel [3, 4]",eosin-Y retention in thiol-ene hydrogels ([3]; starting eosin-Y concentration 0.1 mM),eosin-Y retention in thiol-ene hydrogels ([3]; starting eosin-Y concentration 2.0 mM)
CC(C)(O)C(=O)c1ccc(OCCO)cc1 [I-2959],< 0.5 wt %,< 10 M⁻¹ cm⁻¹,–,–,–,–,–
"Cc1cc(C)c(C(=O)P(=O)([O-])c2ccccc2)c(C)c1.[Li+] [LAP, lithium arylphosphinate]",> 5 wt %,~200 M⁻¹ cm⁻¹,~30 M⁻¹ cm⁻¹,–,–,–,–
"O=C([O-])c1ccccc1-c1c2cc(Br)c(=O)c(Br)c-2oc2c(Br)c([O-])c(Br)cc12.[Na+].[Na+] [eosin-Y, Eosin-Y disodium salt]",–,–,–,0.5 h,6 h,~0.004 µmol,~0.03 µmol
